In US20070231373A1, “Transdermal Steriod for Formulation” (HUNTER-FLEMING LIMITED, priority 2004, published 2007):

Experiment: Permeation behaviour through excised rat skin in Franz type cell
Type: in vitro ADME, Wistar rats
Conditions: conclusion from comparison with estradiol
Method: The materials used were as follows:
The excised abdominal rat skin was mounted on a Franz type cell (receiver volume: 3ml) with a water jacket connected to a water bath at 37° C. The patch was adhered to the stratum comeum side of the skin. The receiver compartment was filled with a mixture of PEG400 and water (1:3 by volume) and stirred with a star head magnetic bead driven by a constant speed motor. At predetermined times, 100 μl of sample was withdrawn from the receiver compartment, and the same volume of receptor solution was added to keep the volume constant. The drug concentration was analysed by HPLC.
For all adhesives, the amount of the drug which had permeated increased steadily with time.

Compound: CC12CCC3C(C1CCC2=O)[C@@H](O)C[C@H]1C[C@@H](O)CCC31C (stereo partly drawn) [7β-OH EPIA, 7β-hydroxy-epiandrosterone]
- skin permeability (in words): potential skin permeability

Compound: C[C@]12CCC(=O)C=C1CC[C@@H]1[C@@H]2[C@@H](O)C[C@]2(C)C(=O)CC[C@@H]12 [HAD, 11β-hydroxy-4-androstene-3,17-dione]
- skin permeability (in words): potential skin permeability
